Molecules are shown by their SMILES. Like-named read-outs stand apart in the source and are kept apart here.

In test [1] the target is CB1 (Homo sapiens, UniProt P21554). It counts as binding.
Test [2] deals with CB1^WT (Homo sapiens, UniProt P21554). The settings on record: [3H]CP55940 binding.
The target in test [3] is C98A,C107ACB1^WT (Homo sapiens, UniProt P21554, C107A/C98A). Particulars: [3H]CP55940 binding, N-terminal C98-C107 disulfide removed by mutation.
Setting [4] is: CB1^WT treated with 10 mM DTT for 20 min prior to assay.

Sequence of CB1^WT (P21554 whole entry): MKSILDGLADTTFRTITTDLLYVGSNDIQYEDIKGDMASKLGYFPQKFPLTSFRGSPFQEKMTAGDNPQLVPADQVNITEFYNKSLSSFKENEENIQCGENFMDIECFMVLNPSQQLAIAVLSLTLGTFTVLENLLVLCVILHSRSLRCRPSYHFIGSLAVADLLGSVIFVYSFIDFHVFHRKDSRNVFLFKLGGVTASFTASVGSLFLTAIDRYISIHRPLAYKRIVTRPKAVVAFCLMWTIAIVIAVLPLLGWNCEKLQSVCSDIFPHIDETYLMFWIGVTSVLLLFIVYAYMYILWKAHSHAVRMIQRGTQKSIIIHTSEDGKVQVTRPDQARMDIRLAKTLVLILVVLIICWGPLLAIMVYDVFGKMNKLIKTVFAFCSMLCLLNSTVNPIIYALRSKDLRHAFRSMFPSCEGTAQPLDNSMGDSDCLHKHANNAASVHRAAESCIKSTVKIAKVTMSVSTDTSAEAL
Sequence of CB1 (P21554 whole entry): as above
Sequence of C98A,C107ACB1^WT (P21554 whole entry C98A/C107A): as the sequence (P21554 whole entry) above, with C98A, C107A counted along it

For `CCCCCCC(C)(C)c1ccc([C@@H]2C[C@H](O)CC[C@H]2CCCO)c(O)c1` [CP55940, (-)-cis-3-[2-hydroxy-4-(1,1-dimethyl-heptyl)phenyl]-trans-4-(3-hydroxypropyl)cyclohexanol], the “cooperativity factor α between orthosteric ligand and DTT” value in test [1] is on record as 0.69 ± 0.08.
As to `CCc1c(C(=O)NCCc2ccc(N3CCCCC3)cc2)[nH]c2ccc(Cl)cc12` [Org 27569], the “allosteric cooperativity factor α for agonist binding” value in test [2] (setting [4]) is on record as 6.8 ± 0.3; in test [2] (untreated CB1^WT), 4.9 ± 0.4; in test [3], 7.8 ± 0.5.
As for `O=C(Nc1ccc(Cl)cc1)Nc1cccc(-c2cccc(N3CCCC3)n2)c1` [PSNCBAM-1, 1-(4-chlorophenyl)-3-[3-(6-pyrrolidin-1-ylpyridin-2-yl)phenyl]urea], the results for the “allosteric cooperativity factor α for agonist binding” value in test [2] (setting [4]) and in test [2] (untreated CB1^WT) were 5.9 ± 0.3 and 4.2 ± 0.2, respectively.

These data come from publication PMC3938390 (Biochemistry, 2013).
